According to patent US9937235B2, “Lipidated peptides as anti-obesity agents” (USTAV ORGANICKE CHEMIE A BIOCHEMIE AKADEMIE VED CR, V.V.I, priority 2012, dated 2018):
Where a SMILES comes first, the peptide text is derived from it. [ ]: non-standard residue; d: D form. The star is where a group is joined. Tridecanoyl = CCCCCCCCCCCCC(=O)*; Myristoyl = CCCCCCCCCCCCCC(=O)*; Nle = CCCC[C@H](N)C(=O)O; Dap = NC[C@H](N)C(=O)O

Columns and labels:
[1] = system: DIO C57BL/6 male mice; test: 14-day SC administration in diet-induced obese (DIO) mice; assay type: in vivo, mouse
Method: Inbred C57BL/6 male mice (AnLab, Prague, Czech Republic) were housed at a temperature of 23° C. under a daily cycle of 12 hours light and dark (light from 6:00 a.m.) with free access to water and food pellets (St-1, Mlýn Kocanda, Jesenice, Czech Republic).
At 8 weeks of age, mice were divided into a standard (St) diet-fed group (the energy content of the St-1 diet was 3.4 kcal/g, containing 25, 9, and 66% of calories from protein, fat, and carbohydrate, respectively (St-1, Mlýn Kocanda, Jesenice, Czech Republic)) and a high fat (HF) diet-fed group (the energy content of the HF diet was 5.3 kcal/g, containing 13, 60, and 27% of calories from protein, fat, and carbohydrate, respectively). […] Food intake and body weight were monitored weekly from 9 to 20 weeks of age. Mice resistant to the HF diet were withdrawn from the experiment (approximately 10% of mice).
At the age of 20 weeks, mice were placed into separate cages with free access to food and water. The following week, mice were subjected to a 14-day food intake experiment. They were injected with palm-PrRP31 or myr-PrRP20 dissolved in saline at doses of 5 mg/kg (n=10) or saline twice a day (at 8:00 and 18:00) for 14 days. Consumption of the St or HF diet and the weight of the mice were simultaneously followed.
After 14 days of treatment, mice were fasted overnight and sacrificed the following morning. Their blood sera were isolated, and the white adipose tissue (subcutaneous, abdominal, and gonadal), and the liver of all mice were dissected, weighed, and stored at −70° C. Fat to body weight ratio was calculated as a ratio of adipose tissue weight to body weight.
Serum insulin and leptin concentrations were measured by RIA assays. Serum glucose levels were measured using a Glucocard glucometer (Arkray, Kyoto, Japan). Serum triglyceride levels were measured by quantitative enzymatic reactions (Sigma, St. Louis, USA).
They were analyzed by a one-way ANOVA followed by a Dunnett post-hoc test (metabolic parameters, behavioral study) or two-way ANOVA followed by a Bonferroni post-hoc test (body weight evaluation) using Graph-Pad Software (San Diego, Calif., USA). P<0.05 was considered statistically significant.

[2] = system: fasted C57BL/6 mice; test: Food intake in fasted mice after SC administration; assay type: in vivo, mouse; details: SC administration, 5 mg/kg; for % control: food intake vs saline
How it was run: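 Male C57BL/6 mice, food-deprived 17 h, received saline, PrRP or lipidated analogs either SC at 1-10 mg/kg or ICV into the third ventricle at 4 nmol/mouse.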

[3] = target: T1, rat PrRP receptor (GPR10) in RC-4B/C cells (Rattus norvegicus, UniProt Q64121); test: Competitive binding to rat pituitary RC-4B/C cells; details: ^125I-rat PrRP31, RC-4B/C cells
T1 construct: host or cells: RC-4B/C rat pituitary cell line
T1 sequence (Q64121 1-370): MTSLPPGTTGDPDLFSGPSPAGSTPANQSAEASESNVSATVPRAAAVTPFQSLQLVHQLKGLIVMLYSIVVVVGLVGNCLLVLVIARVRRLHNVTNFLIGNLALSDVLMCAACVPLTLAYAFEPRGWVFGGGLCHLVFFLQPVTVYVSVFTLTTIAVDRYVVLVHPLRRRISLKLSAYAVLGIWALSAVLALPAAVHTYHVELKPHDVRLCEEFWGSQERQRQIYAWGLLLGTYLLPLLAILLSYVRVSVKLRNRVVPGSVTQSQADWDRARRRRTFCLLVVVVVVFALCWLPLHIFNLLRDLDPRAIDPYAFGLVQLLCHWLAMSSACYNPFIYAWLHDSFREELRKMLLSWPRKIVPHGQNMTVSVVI

[4] = system: fasted C57BL/6 mice; test: Food intake in fasted mice after ICV administration; assay type: in vivo; details: 4 nmol/mouse; for % control: food intake vs saline
Method: Male C57BL/6 mice (An Lab, Prague 4) were bred in the accredited animal facility in the Institute of Organic Chemistry and Biochemistry, Czech Academy of Sciences, Prague, at the Institute of Molecular Genetics, Prague 4, at the temperature of 22±2° C. with access to food and water ad libitum. The day/night cycle was 12/12 hours (light turned on at 6:00 am). Animals were treated according to the Animal Protection Act (Act No. 246/1992). The males were fed standard chow diet St-1 (Mlýn Kocanda, Praha, Czech Republic) which contained 66% saccharides, 25% proteins and 9% lipids with a caloric value of 3.4 kcal/g.
The food was withdrawn 17 hours prior to injection of lipidated peptide and free access to water was maintained. The administration of saline, PrRP or lipidated analogs was performed either by SC injection at doses of 1-10 mg/kg (volume 0.2 ml/mouse), or by ICV using infusion pump (cannulae were inserted into the third brain ventricle 4 days before the experiment following the procedure of Maixnerová et al. (Maixnerová et al., 2011)). The single dose of peptide was 4 nmol/mouse (5 μl/mouse).
Fifteen minutes after the lipidated peptide administration, the mice were given pre-weighed food. The food was then weighed every 30 minutes for 5-10 hours. The administration of every dose was performed at least twice and one group of mice consisted of at least 6 mice. The results were presented as % of food intake as compared with the control group injected with saline.
Statistical evaluation was performed using program Graph-Pad Prism Software (San Diego, Calif., USA), and the one-way ANOVA with a subsequent Dunnettovým post-hoc test. The difference in food intake between mice injected with saline and mice injected with the examined peptide were considered statistically significant at P<0.05.

[5] = system: MAPK/ERK1/2 signaling pathway in RC-4B/C cells; test: MAPK/ERK1/2 signaling in RC-4B/C cells (Western blot); assay type: cell-based, rat; details: 10^−6 mol·l^−1, 5 minute incubation
Method: RC-4B/C cells, which were used to determine if lipidated PrRP20 analogs are able to initiate the MAPK/ERK1/2 signaling pathway, were grown in 6-well plates up to the optimal density of […]. Seventeen hours before sample harvest, the growth medium was replaced by a serum-free medium lacking epidermal growth factor (EGF). The respective lipidated PrRP analog was added to each well in the final concentration of 10^−6 mol·l^−1. After a 5 minute incubation at 37° C., the plate was placed on ice and each well was rinsed three times with PBS pH 7.4 (137 mmol·l^−1 NaCl, 2.7 mmol·l^−1 KCl, 8 mmol·l^−1 Na2HPO4.2H2O a 1.76 mmol·l^−1 KH2PO4) and cooled to 4° C. […] Samples were collected in at least three independent experiments.
To determine if the lipidated PrRP20 analogs initiated the MAPK/ERK1/2 signaling pathway, Western blot analysis was used. Electrophoresis was performed on 5%/12% polyacrylamide gel in the presence of SDS (SDS-PAGE) on the instrument MiniProtean 3 (BioRad, Herkules, Calif., USA). Samples that were loaded on the gel were first disintegrated by ultrasound, then heated at 100° C. for 2 minutes, and centrifuged for 5 minutes at 500×g at room temperature. […] Electrophoresis was performed at a constant voltage of 100 V for 10 minutes, or for 60 minutes at 150 V.
To show the presence of phosphorylated proteins in the samples, the proteins from the SDS-PAGE gel were transferred to the Immobilon™-P PVDF (polyvinylidene difluoride) membrane (Sigma-Aldrich, USA). The transfer was performed in blotting buffer at pH 8.3 (25 mmol·l^−1 Tris, 192 mmol·l^−1 glycine and 20% methanol) for 20 hours at 4° C. at a constant voltage of 30 V.
After the protein transfer to the PVDF membrane, the membranes were washed for 5 minutes in TBS washing buffer (20 mmol·l^−1 Tris, 140 mmol·l^−1 NaCl and 0.1% Tween-20) and then incubated for 1 hour in blocking buffer (TBS with 5% non-fat milk powder and 5 mmol·l^−1 Na3VO4 and 50 mmol·l^−1 NaF) at room temperature. Further, the membranes were washed three times for 5 minutes using the TBS washing buffer. The membranes were then incubated with the primary antibody against phospho-p44/42 MAPK(Thr202/Tyr204) (Cell Signaling Technology, Beverly, USA) which was diluted in blocking buffer at 1:1000. After the next three washes with the TBS washing buffer for 5 minutes, the membranes were incubated for 1 hour with rabbit secondary antibody labeled with peroxidase (Sigma, St. Louis, USA) which was diluted in blocking buffer at 1:12,000.
The membranes were then washed three times in TBS washing buffer for 5 minutes and then the solution Femto (Pierce SuperSignal, Thermo Fisher Scientific, Rockford, Ill., USA) was applied. The induced chemiluminiscence was detected by a CCD camera (LAS 3000, Fuji Photo Film GmBH, Düsseldorf, Germany).
To assess the initiation of signaling pathways, a densitometric analysis using the program Quantity One (BioRad, Hercules, Calif., USA) was used. For statistical evaluation of the statistically significant response of the cellular signaling, one-way ANOVA with subsequent Dunnett post-hoc test was used. Data was statistically significant at P<0.05.

[6] = 5 mg/kg SC twice a day, 14 days, 17 h fasted DIO male mice
[7] = serum, 5 mg/kg SC twice a day, 14 days, 17 h fasted DIO male mice

Compound | Fat/body weight [%] [1, 6] | Liver/body weight [%] [1, 6] | Body weight of DIO mice ([1]; 5 mg/kg SC twice per day for 14 days, FIG. 9) | Glucose [1, 7] | Insulin [1, 7] | Leptin [1, 7] | Triglycerides [1, 7] | food intake ([2]; 45 minutes) | % control ([2]; 45 minutes) | food intake ([2]; 300 minutes) | % control ([2]; 300 minutes) | % of PrRP31 binding [3] | food intake ([4]; 45 minutes) | % control ([4]; 45 minutes) | food intake ([4]; 300 minutes) | % control ([4]; 300 minutes) | ERK signaling [5]
Myr-PrRP20: myristoylated PrRP20 given to DIO mice; analog number (rat 10 or human 13/55) not stated (Myristoyl-TPDINPAWYASRGIRPVGRF-NH2; ends and bridges not checked; UniProt P81277 34-53, looked up) | 15.30 ± 0.42% | 3.60 ± 0.18 % | significantly decreased | 7.52 ± 0.16 mmol/L | 3.54 ± 0.47 ng/mL | 39.56 ± 3.47 ng/mL | 68.71 ± 4.16 mg/dL |  |  |  |  |  |  |  |  |  | 
CCCCCCCCCCCCC(=O)NC[C@H](N)C(=O)N[C@@H](CCCNC(=N)N)C(=O)N[C@@H](C)C(=O)N[C@@H](Cc1c[nH]cn1)C(=O)N[C@@H](CCC(N)=O)C(=O)N[C@@H](Cc1c[nH]cn1)C(=O)N[C@@H](CO)C(=O)N[C@@H](CCCC)C(=O)N[C@@H](CCC(=O)O)C(=O)N[C@H](C(=O)N[C@@H](CCCNC(=N)N)C(=O)N[C@H](C(=O)N1CCC[C@H]1C(=O)N[C@@H](CC(=O)O)C(=O)N[C@H](C(=O)N[C@@H](CC(N)=O)C(=O)N1CCC[C@H]1C(=O)N[C@@H](C)C(=O)N[C@@H](Cc1c[nH]c2ccccc12)C(=O)N[C@@H](Cc1ccc(O)cc1)C(=O)N[C@H](C(=O)NCC(=O)N[C@@H](CCCNC(=N)N)C(=O)NCC(=O)N[C@H](C(=O)N[C@@H](CCCNC(=N)N)C(=O)N1CCC[C@H]1C(=O)N[C@H](C(=O)NCC(=O)N[C@@H](CCCNC(=N)N)C(=O)N[C@@H](Cc1ccccc1)C(N)=O)C(C)C)[C@@H](C)CC)[C@@H](C)O)[C@@H](C)CC)[C@@H](C)O)[C@@H](C)O [Analog 4] (H-[Dap](Tridecanoyl)RAHQHS[Nle]ETRTPDINPAWYTGRGIRPVGRF-NH2) |  |  |  |  |  |  |  | 0.07 g | 30% | 1.04 g | 101% | 967% | 0.38 g | 71% | 1.4 g | 105% | agonist
CCCCCCCCCCCCCC(=O)N[C@H](C(=O)N1CCC[C@H]1C(=O)N[C@@H](CC(=O)O)C(=O)N[C@H](C(=O)N[C@@H](CC(N)=O)C(=O)N1CCC[C@H]1C(=O)N[C@@H](C)C(=O)N[C@@H](Cc1c[nH]c2ccccc12)C(=O)N[C@@H](Cc1ccc(O)cc1)C(=O)N[C@H](C(=O)NCC(=O)N[C@@H](CCCNC(=N)N)C(=O)NCC(=O)N[C@H](C(=O)N[C@@H](CCCNC(=N)N)C(=O)N1CCC[C@H]1C(=O)N[C@H](C(=O)NCC(=O)N[C@@H](CCCNC(=N)N)C(=O)N[C@@H](Cc1ccccc1)C(N)=O)C(C)C)[C@@H](C)CC)[C@@H](C)O)[C@@H](C)CC)[C@@H](C)O [Analog 10] (Myristoyl-TPDINPAWYTGRGIRPVGRF-NH2) |  |  |  |  |  |  |  | 0.11 g | 32% |  | 44% | 632% | 0.28 g | 51% | 1.1 g | 86% | agonist
